According to US20260374739A1, “SMALL MOLECULAR WEIGHT CHEMICAL COMPOUND TO ANTAGONIZE EPH-EPHRIN TETRAMERIZATION AND INHIBIT BIDIRECTIONAL SIGNALING” (THE BOARD OF REGENTS OF THE UNIVERSITY OF TEXAS SYSTEM, priority 2022, published 2026):
Values joined by “and” are separate entries in the source; they are usually repeats but may differ in a detail not shown here. Equal values may be shown once. “Also recorded” adds a separate entry of the source. Marks after values point to notes of the source that are not given here.

What was measured:
EphrinB2-EphB2 [1] = target: T1, EphrinB2-EphB2 (Homo sapiens, UniProt P29323); assay: Octet 80 sec association/500 sec dissociation, immobilized human EphrinB2-Fc binding to soluble human EphB2-His; settings: immobilized human EphrinB2, 25 nM soluble human EphB2; for EphB2 Inhibition Percent, Inhibition of Association ONLY: at 3.2 μM and 80 seconds; for EphB2 Inhibition Percent, Inhibition of Association-Dissociation: at 3.2 μM and 580 seconds
T1 construct: soluble human EphB1-His, EphB2-His, and EphB4-His ectodomains; commercially available human EphrinB1-Fc (EB1), EphrinB2-Fc (EB2), and EphrinB3-Fc (EB3) ectodomain proteins; purchased
T1 sequence (P29323 19-543 limits assumed): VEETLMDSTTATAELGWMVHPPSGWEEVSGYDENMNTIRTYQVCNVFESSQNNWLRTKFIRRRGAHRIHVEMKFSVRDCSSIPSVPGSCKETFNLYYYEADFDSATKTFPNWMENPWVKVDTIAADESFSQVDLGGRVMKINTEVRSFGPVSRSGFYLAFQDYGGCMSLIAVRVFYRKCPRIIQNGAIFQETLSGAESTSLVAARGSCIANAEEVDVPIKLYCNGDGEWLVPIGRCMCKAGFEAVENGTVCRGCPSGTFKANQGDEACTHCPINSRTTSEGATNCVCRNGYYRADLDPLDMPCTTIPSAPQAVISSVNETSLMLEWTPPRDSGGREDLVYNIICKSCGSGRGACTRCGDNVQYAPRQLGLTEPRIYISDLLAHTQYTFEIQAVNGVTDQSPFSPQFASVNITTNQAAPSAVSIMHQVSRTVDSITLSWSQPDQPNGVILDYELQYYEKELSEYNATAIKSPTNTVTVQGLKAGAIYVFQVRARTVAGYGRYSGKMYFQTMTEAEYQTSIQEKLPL
How it was run: (§1)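 EphrinB2-Fc captured on AHC biosensors, then soluble His-tagged EphB ectodomain (25 nM for % inhibition runs) associated 80 s and dissociated 500 s in PBS, 0.05% Tween-20, 1% DMSO ± compound. Compounds tested at 0.1–3.2 μM with a 10 μM max standard; IC50 from AUC of full traces or at 75 s and 135 s.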

EphrinB2-EphB1 = target: T2, EphrinB2-EphB1 (Homo sapiens, UniProt P54762); assay: Octet 80 sec association/500 sec dissociation, immobilized human EphrinB2-Fc binding to soluble human EphB1-His; settings: immobilized human EphrinB2, 25 nM soluble human EphB1; for EphB1 Inhibition Percent, Inhibition of Association ONLY: at 3.2 μM and 80 seconds; for EphB1 Inhibition Percent, Inhibition of Association-Dissociation: at 3.2 μM and 580 seconds
T2 construct: soluble human EphB1-His, EphB2-His, and EphB4-His ectodomains; commercially available human EphrinB1-Fc (EB1), EphrinB2-Fc (EB2), and EphrinB3-Fc (EB3) ectodomain proteins; purchased
T2 sequence (P54762 18-540 limits assumed): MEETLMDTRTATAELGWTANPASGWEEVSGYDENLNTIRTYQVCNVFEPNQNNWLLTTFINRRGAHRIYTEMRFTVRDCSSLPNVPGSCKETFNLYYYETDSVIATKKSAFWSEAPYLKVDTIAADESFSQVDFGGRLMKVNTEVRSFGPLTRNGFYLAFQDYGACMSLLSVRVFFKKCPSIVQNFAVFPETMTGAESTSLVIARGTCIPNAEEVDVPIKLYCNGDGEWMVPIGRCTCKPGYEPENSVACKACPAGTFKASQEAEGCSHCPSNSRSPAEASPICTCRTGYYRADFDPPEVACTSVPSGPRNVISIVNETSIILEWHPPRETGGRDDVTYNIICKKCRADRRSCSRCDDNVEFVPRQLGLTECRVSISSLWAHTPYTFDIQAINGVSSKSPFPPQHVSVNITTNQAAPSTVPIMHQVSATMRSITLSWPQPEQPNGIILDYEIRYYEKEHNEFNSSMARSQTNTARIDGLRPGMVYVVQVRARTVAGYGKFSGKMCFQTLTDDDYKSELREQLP
How it was run: as §1

EphrinB2-EphB2 [2] = target: T1, EphrinB2-EphB2; assay: Octet tetramerization inhibition, immobilized human EphrinB2 binding to 50 nM soluble human EphB2
EphrinB2-EphB4 = target: T3, EphrinB2-EphB4 (Homo sapiens, UniProt P54760); assay: Octet 80 sec association/500 sec dissociation, immobilized human EphrinB2-Fc binding to soluble human EphB4-His; settings: for EphB4 Inhibition Percent, Inhibition of Association ONLY: at 3.2 μM and 80 seconds; for EphB4 Inhibition Percent, Inhibition of Association ONLY / EphB4 Inhibition Percent, Inhibition of Association-Dissociation: immobilized human EphrinB2, 25 nM soluble human EphB4; for EphB4 Inhibition Percent, Inhibition of Association-Dissociation: at 3.2 μM and 580 seconds
T3 construct: soluble human EphB1-His, EphB2-His, and EphB4-His ectodomains; commercially available human EphrinB1-Fc (EB1), EphrinB2-Fc (EB2), and EphrinB3-Fc (EB3) ectodomain proteins; purchased
T3 sequence (P54760 16-539 limits assumed): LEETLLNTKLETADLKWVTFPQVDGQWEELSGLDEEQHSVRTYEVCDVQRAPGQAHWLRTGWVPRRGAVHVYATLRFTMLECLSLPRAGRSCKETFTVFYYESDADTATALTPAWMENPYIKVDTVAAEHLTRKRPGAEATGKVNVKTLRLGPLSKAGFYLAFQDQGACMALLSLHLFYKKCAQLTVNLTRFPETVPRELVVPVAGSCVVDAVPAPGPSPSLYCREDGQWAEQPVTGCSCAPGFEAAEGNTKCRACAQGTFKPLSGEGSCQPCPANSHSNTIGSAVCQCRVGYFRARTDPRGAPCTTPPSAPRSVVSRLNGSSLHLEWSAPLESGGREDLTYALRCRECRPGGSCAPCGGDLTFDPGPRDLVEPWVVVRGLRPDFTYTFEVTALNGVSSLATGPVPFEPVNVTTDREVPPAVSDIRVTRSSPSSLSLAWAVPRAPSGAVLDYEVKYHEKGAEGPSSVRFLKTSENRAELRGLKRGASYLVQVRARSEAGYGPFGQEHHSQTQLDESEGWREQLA
How it was run: as §1

[3] = Absolute AUC/IC50, Table A, EphrinB2-EphB2
[4] = Absolute Association IC50 (300 sec), Table A, EphrinB2-EphB2
[5] = Absolute Dissociation IC50 (450 sec), Table A, EphrinB2-EphB2
[6] = Relative AUC/IC50, Table A, EphrinB2-EphB2, compound 7: association only
[7] = Relative Association IC50 (300 sec), Table A, EphrinB2-EphB2
[8] = Relative Dissociation IC50 (450 sec), Table A, EphrinB2-EphB2
[9] = tetramerization inhibitor IC50 (relative), association step, surmountable tetramer

Compound	EphB2 Inhibition Percent, Inhibition of Association ONLY (EphrinB2-EphB2 [1])	EphB2 Inhibition Percent, Inhibition of Association-Dissociation (EphrinB2-EphB2 [1])	EphB1 Inhibition Percent, Inhibition of Association ONLY (EphrinB2-EphB1)	EphB1 Inhibition Percent, Inhibition of Association-Dissociation (EphrinB2-EphB1)	IC50 (EphrinB2-EphB2 [2]; [3]) [µM]	IC50 (EphrinB2-EphB2 [2]; [4]) [µM]	IC50 (EphrinB2-EphB2 [2]; [5]) [µM]	IC50 (EphrinB2-EphB2 [2]; [6]) [µM]	IC50 (EphrinB2-EphB2 [2]; [7]) [µM]	IC50 (EphrinB2-EphB2 [2]; [8]) [µM]	EphB4 Inhibition Percent, Inhibition of Association ONLY (EphrinB2-EphB4)	EphB4 Inhibition Percent, Inhibition of Association-Dissociation (EphrinB2-EphB4)	IC50 (EphrinB2-EphB2 [2]; [9]) [µM]	selectivity among EphrinB2-EphB1/B2/B4 (EphrinB2-EphB4; 3.2 μM)	tetramerization inhibitor activity (EphrinB2-EphB2 [2])	disruption of unsurmountable tetramer (EphrinB2-EphB2 [2]; 0.8-3.2 μM, listed as A19-L)
O=[N+]([O-])c1ccc(N2CCN(Cc3ccc(O)c4ncccc34)CC2)cc1 [Compound 38, 8-hydroxy-5-((4-(4-nitrophenyl)piperazin-1-ium-1-yl)methyl)quinolin-1-ium chloride]	54.3%	72.1%	24.8%	43.2%	2.18	2.29	1.86	1.2	1.23	1.47	9.6%	17.5%				
Cc1ccc2c(CN3CCN(c4ccc(Br)cc4)CC3)ccc(O)c2n1 [Compound 61, 5-((4-(4-bromophenyl)piperazin-1-ium-1-yl)methyl)-8-hydroxy-2-methylquinolin-1-ium chloride]	0*%	0*%	8.1%	11.3%	> 1.6	> 1.6	> 1.6	> 1.6	> 1.6	> 1.6	0*%	0*%				
Nc1ccc(N2CCN(Cc3ccc(O)c4ncccc34)CC2)cc1 [Compound 39, 5-((4-(4-aminophenyl)piperazin-1-yl)methyl)quinolin-8-ol]	33.9% and 31.2%	46.4% and 45.6%		16.9% and 8.0%	3.09	3.02	2.83	1.7	2.75	2.25	0.4% and 0%	6.9% and 5.5%	~2	less action toward EphB4 and EphB1 but high specificity for EphB2		
Oc1ccc(CN2CCN(c3ccc(C(F)(F)F)cc3)CC2)c2cccnc12 [Compound 103, 5-((4-(4-(trifluoromethyl)phenyl)piperazin-1-yl)methyl)quinolin-8-ol]	10.5%	27.6%	16.3%	33.8%							0*%	11.4%			eliminated the activity	
OCc1ccc2c(CN3CCOCC3)ccc(O)c2n1 [Compound 12, 2-(hydroxymethyl)-5-(morpholinomethyl)quinolin-8-ol]	48.1%	48.1%	17.4%	17.4%	> 3.2	> 3.2	> 3.2	> 3.2	2.75	1.48	11.0%	11.0%	~3			
Oc1ccc(CN2CCN(c3ccccc3)CC2)c2cccnc12 [Compound 23, 8-hydroxy-5-((4-phenylpiperazin-1-ium-1-yl)methyl)quinolin-1-ium chloride]	66.0% and 38.5%	79.1% and 49%	30.8% and 16.2%	41.2% and 24.8%	> 1.6	> 1.6	> 1.6	> 1.6	> 1.6	> 1.6	23.1% and 12.1%	26.7% and 17.9%				
O=S1(=O)CCN(Cc2cc(Br)c(O)c3ncccc23)CC1 [Compound 17, 4-((7-bromo-8-hydroxyquinolin-1-ium-5-yl)methyl)thiomorpholin-4-ium 1,1-dioxide chloride]	59.5%	74.5%	33.0%	48.0%	1.48	1.5	1.26	0.81	0.89	0.78	18.1%	37.2%				
O=C(c1ccc(O)c2ncccc12)N1CCOCC1 [Compound 53, (8-hydroxyquinolin-5-yl)(morpholino)methanone]		65.3% and 40.6%		38.7% and 26.3%	2.82	3.02	2.34	1.86	1.95	1.62		16.8% and 12.5%	~1.6			slight ability to disrupt the unsurmountable tetramer; also recorded: able to inhibit a small amount of the EphrinB2-EphB2 unsurmountable tetramer
O=S1(=O)CCN(Cc2cc(I)c(O)c3ncccc23)CC1 [Compound 19, 4-((8-hydroxy-7-iodoquinolin-1-ium-5-yl)methyl)thiomorpholin-4-ium 1,1-dioxide chloride]	53.7%	71.4%	33.9%	50.1%	> 1.6	1.6	1.41	0.69	0.83	0.81	12.9%	36.2%				
